Series [1] in a line: Selectivity ratio of IC50 for human Nav1.1/beta1/2 transfected in HEK293-A cells to IC50 for human Nav1.7/beta1/2 transfected in HEK293-A cells.
Series [2] deals with Mus musculus. The experiment in a line: Analgesic activity against PSL-induced neuropathic pain mouse model assessed as reversal of thermal hyperalgesia at 3 mg/kg, po by plantar test. It counts as functional, organism-based.
Series [3] can be described thus: Unbound fraction in mouse plasma. It counts as ADME, cell-free.
Series [4] can be described thus: Aqueous thermodynamic solubility of the compound at pH 6.8 measured after 4 hrs by HPLC-UV analysis. Format: physicochemical. To be noted: read-out: Therm_solubility.
Series [5] deals with Sodium channel protein type 9 subunit alpha/beta-1/beta-2 (Mus musculus, UniProt Q62205). Put plainly: Inhibition of mouse Nav1.7/beta1/2 transfected in HEK293-A cells assessed as inhibition of channel current incubated for 5.5 mins by high-throughput electrophysiology system analysis. It counts as cell-based.
Series [6] is described as follows: Selectivity ratio of IC50 for human Nav1.5/beta1/2 transfected in HEK293-A cells to IC50 for human Nav1.7/beta1/2 transfected in HEK293-A cells.
Series [7] addresses Sodium channel protein type 5 subunit alpha/beta-1/beta-2 (Homo sapiens, UniProt Q14524). The experiment in a line: (§1) Inhibition of human Nav1.5/beta1/2 transfected in HEK293-A cells assessed as inhibition of channel current incubated for 5.5 mins by high-throughput electrophysiology system analysis. It counts as toxicity, cell-based.
Series [8] concerns the target Sodium channel protein type 9 subunit alpha/beta-1/beta-2 (Homo sapiens, UniProt Q15858). The experiment in a line: Inhibition of human Nav1.7/beta1/2 transfected in HEK293-A cells assessed as inhibition of channel current incubated for 5.5 mins by high-throughput electrophysiology system analysis. It counts as cell-based.
The next series deals with hERG (KCNH2) (Homo sapiens, UniProt Q12809). Put plainly: Inhibition of hERG at 100 uM. It counts as toxicity. In general terms: Block of hERG is tested as a sign of cardiac risk.
Series [9] in a line: 1-Octanol/PBS buffer distribution coefficient, log D of the compound at pH 7.4 by HPLC/LC-MS analysis. Format: physicochemical.
The target of series [10] is Sodium channel protein type 1 subunit alpha/beta-1/beta-2 (Homo sapiens, UniProt P35498). Put plainly: (§2) Inhibition of human Nav1.1/beta1/2 transfected in HEK293-A cells assessed as inhibition of channel current incubated for 5.5 mins by high-throughput electrophysiology system analysis. Format: toxicity, cell-based.
Series [11] has as its target Nav1.5/beta1/beta2 sodium channel (Homo sapiens, UniProt Q14524). The series is described as §1. To be noted: human, HEK293-A cells transfected with human Nav1.5/beta1/2. It counts as toxicity, cell-based.
Series [12] is described as follows: Ratio of fCmax in ddY mouse plasma at 1 mg/kg, po to IC50 for inhibition of mouse Nav1.7/beta1/2 transfected in HEK293-A cells.
The subject of series [13] is Mus musculus. The experiment in a line: Analgesic activity against PSL-induced neuropathic pain mouse model assessed as reversal of thermal hyperalgesia at 1 mg/kg, po measured after 240 mins by plantar test. Format: functional, organism-based.
Series [14] in a line: Total body clearance in ddY mouse at 1 mg/kg, iv by LC-MS/MS analysis. It counts as ADME, organism-based. To be noted: in vivo.
A further series addresses Cytochrome P450 3A4 (Homo sapiens, UniProt P08684). Put plainly: Inhibition of CYP3A4 (unknown origin) at 10 uM. It counts as ADME.
The nature of series [15]: Half life in ddY mouse at 1 mg/kg, po by LC-MS/MS analysis. Format: ADME, organism-based. The note with it: in vivo.
Series [16] deals with Mus musculus. Put plainly: Analgesic activity against PSL-induced neuropathic pain mouse model assessed as reversal of thermal hyperalgesia at 1 mg/kg, po measured after 60 mins by plantar test. Format: functional, organism-based.
Series [17] can be described thus: Bioavailability in ddY mouse at 1 mg/kg, iv by LC-MS/MS analysis. Format: ADME, organism-based. To be noted: in vivo.
The target in the next series is T1, Cytochrome P450 1A2 (Homo sapiens, UniProt P05177).
T1 sequence (P05177 whole entry): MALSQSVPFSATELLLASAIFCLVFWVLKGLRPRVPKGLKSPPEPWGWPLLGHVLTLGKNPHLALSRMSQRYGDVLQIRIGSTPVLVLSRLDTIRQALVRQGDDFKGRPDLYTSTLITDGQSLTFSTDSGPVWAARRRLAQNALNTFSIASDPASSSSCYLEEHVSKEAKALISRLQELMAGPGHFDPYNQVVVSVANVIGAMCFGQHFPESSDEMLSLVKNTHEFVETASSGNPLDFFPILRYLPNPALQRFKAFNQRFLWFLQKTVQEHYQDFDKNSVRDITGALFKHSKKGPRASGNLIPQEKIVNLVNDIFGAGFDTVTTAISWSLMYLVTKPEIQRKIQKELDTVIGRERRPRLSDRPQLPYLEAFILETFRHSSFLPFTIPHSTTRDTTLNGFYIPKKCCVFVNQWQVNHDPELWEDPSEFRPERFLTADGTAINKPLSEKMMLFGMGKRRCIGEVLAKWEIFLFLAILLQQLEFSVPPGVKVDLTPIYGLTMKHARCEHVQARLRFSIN
The experiment in a line: Inhibition of CYP1A2 (unknown origin) at 10 uM. Format: ADME.

Series [18] can be described thus: Tmax in ddY mouse at 1 mg/kg, po by LC-MS/MS analysis. Format: ADME, organism-based. The note with it: in vivo.
Series [19] concerns Mus musculus. Put plainly: Analgesic activity against PSL-induced neuropathic pain mouse model assessed as reversal of thermal hyperalgesia at 1 mg/kg, po measured after 30 mins by plantar test. It counts as functional.
A short description of series [20]: Cmax in ddY mouse at 1 mg/kg, po by LC-MS/MS analysis. Format: ADME, organism-based. On the set-up: dose 1 mg/kg, route po. The note with it: in vivo.
Series [21] in a line: Glutathione reactivity in human liver microsome assessed as GSH adduct formation. Format: ADME. The note with it: microsomes. Background: Microsomes from liver hold many membrane-bound enzymes, among them those of drug oxidation.
Series [22] can be described thus: Volume of distribution at steady state in ddY mouse at 1 mg/kg, iv by LC-MS/MS analysis. To be noted: in vivo, read-out: Vdss. It counts as ADME, organism-based.
Another series has as its target Cytochrome P450 2D6 (Homo sapiens, UniProt P10635). The experiment in a line: Inhibition of CYP2D6 (unknown origin) at 10 uM. Format: ADME.
The target of a further series is Cytochrome P450 2C9 (Homo sapiens, UniProt P11712). The experiment in a line: Inhibition of CYP2C9 (unknown origin) at 10 uM. Format: ADME.
Series [23] has as its system Mus musculus. The experiment in a line: Analgesic activity against PSL-induced neuropathic pain mouse model assessed as reversal of thermal hyperalgesia at 1 mg/kg, po measured after 120 mins by plantar test. Format: functional, organism-based.
The nature of series [24]: AUC(0 to 24 hrs) in ddY mouse at 1 mg/kg, po by LC-MS/MS analysis. It counts as ADME, organism-based. Also on record: dose 1 mg/kg, route po. To be noted: in vivo.
Series [25] deals with Nav1.1/beta1/beta2 sodium channel (Homo sapiens, UniProt P35498). Described as §2. The note with it: human, HEK293-A cells transfected with human Nav1.1/beta1/2. It counts as toxicity, cell-based.

≈ marks a conversion by molar mass, not a printed value. Calls of active or inactive are those of the source. The rule behind the calls is not given here.

Chain of Sodium channel protein type 5 subunit alpha/beta-1/beta-2 (Q14524 whole entry): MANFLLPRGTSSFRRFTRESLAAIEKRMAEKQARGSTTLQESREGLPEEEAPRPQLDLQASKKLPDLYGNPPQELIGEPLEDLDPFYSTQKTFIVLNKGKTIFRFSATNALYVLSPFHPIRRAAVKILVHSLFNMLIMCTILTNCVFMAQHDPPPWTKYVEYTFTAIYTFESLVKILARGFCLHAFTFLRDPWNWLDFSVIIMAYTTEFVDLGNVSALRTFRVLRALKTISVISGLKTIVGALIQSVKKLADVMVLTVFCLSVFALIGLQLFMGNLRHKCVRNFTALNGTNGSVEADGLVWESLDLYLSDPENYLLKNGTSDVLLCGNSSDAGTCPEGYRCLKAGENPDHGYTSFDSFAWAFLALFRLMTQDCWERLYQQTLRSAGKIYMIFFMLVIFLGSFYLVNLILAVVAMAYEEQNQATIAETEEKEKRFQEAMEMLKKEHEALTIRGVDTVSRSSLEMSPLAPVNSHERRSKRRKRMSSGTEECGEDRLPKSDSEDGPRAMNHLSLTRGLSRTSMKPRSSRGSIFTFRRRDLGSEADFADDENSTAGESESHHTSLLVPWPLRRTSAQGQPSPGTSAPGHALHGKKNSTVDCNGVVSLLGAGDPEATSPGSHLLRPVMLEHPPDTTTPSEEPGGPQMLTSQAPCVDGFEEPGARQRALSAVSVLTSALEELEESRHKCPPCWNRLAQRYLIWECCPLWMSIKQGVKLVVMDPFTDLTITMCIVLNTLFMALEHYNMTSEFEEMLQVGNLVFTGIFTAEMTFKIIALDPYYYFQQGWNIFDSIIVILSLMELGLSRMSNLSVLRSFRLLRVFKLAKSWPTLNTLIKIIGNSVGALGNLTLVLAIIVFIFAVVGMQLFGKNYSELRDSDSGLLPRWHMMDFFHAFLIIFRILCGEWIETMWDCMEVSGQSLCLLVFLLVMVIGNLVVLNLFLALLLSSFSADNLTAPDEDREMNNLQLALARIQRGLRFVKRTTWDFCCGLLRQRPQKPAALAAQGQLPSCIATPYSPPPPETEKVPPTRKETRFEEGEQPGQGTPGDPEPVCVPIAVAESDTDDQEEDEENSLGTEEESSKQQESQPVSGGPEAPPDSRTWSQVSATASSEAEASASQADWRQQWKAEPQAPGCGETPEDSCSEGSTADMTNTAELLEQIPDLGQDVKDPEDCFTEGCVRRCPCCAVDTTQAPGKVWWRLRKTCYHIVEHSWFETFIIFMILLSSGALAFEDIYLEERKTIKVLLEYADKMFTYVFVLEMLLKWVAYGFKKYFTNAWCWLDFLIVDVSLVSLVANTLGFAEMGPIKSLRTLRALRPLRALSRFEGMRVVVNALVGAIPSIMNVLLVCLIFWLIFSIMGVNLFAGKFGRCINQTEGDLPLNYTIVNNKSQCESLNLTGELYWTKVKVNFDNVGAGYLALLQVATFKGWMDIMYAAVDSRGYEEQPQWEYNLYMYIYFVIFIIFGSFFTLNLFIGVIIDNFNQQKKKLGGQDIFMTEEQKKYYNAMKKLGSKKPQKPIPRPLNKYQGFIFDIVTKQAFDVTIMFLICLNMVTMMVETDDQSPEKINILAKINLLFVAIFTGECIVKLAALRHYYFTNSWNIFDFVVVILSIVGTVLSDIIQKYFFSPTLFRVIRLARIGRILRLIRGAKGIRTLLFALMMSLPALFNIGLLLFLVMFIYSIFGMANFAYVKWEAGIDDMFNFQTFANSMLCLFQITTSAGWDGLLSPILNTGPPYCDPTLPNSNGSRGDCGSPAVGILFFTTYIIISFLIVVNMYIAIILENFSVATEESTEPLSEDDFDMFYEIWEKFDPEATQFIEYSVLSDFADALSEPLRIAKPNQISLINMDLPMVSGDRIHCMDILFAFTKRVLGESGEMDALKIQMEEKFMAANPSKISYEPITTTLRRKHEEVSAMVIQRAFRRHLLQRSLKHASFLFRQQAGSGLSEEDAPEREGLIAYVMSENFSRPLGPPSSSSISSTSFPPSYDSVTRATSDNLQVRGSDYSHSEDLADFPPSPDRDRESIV
Chain of Sodium channel protein type 5 subunit alpha/beta-1/beta-2 (O60939 whole entry, further chain): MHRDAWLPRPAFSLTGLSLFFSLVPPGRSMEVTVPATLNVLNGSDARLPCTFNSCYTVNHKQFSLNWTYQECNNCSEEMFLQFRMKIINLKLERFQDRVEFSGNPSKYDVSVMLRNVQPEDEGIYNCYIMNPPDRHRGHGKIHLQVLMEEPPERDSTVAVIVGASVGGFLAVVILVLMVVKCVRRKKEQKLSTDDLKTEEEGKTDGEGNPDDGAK
Chain of Sodium channel protein type 5 subunit alpha/beta-1/beta-2 (Q07699 whole entry, further chain): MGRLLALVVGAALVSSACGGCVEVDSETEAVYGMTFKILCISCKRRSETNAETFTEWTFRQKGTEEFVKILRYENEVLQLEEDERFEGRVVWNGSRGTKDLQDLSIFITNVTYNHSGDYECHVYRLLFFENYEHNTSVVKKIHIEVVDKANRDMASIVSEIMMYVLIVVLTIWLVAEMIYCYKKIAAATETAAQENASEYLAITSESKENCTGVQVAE
Chain of Sodium channel protein type 9 subunit alpha/beta-1/beta-2 (Homo sapiens, UniProt Q15858) (Q15858 whole entry): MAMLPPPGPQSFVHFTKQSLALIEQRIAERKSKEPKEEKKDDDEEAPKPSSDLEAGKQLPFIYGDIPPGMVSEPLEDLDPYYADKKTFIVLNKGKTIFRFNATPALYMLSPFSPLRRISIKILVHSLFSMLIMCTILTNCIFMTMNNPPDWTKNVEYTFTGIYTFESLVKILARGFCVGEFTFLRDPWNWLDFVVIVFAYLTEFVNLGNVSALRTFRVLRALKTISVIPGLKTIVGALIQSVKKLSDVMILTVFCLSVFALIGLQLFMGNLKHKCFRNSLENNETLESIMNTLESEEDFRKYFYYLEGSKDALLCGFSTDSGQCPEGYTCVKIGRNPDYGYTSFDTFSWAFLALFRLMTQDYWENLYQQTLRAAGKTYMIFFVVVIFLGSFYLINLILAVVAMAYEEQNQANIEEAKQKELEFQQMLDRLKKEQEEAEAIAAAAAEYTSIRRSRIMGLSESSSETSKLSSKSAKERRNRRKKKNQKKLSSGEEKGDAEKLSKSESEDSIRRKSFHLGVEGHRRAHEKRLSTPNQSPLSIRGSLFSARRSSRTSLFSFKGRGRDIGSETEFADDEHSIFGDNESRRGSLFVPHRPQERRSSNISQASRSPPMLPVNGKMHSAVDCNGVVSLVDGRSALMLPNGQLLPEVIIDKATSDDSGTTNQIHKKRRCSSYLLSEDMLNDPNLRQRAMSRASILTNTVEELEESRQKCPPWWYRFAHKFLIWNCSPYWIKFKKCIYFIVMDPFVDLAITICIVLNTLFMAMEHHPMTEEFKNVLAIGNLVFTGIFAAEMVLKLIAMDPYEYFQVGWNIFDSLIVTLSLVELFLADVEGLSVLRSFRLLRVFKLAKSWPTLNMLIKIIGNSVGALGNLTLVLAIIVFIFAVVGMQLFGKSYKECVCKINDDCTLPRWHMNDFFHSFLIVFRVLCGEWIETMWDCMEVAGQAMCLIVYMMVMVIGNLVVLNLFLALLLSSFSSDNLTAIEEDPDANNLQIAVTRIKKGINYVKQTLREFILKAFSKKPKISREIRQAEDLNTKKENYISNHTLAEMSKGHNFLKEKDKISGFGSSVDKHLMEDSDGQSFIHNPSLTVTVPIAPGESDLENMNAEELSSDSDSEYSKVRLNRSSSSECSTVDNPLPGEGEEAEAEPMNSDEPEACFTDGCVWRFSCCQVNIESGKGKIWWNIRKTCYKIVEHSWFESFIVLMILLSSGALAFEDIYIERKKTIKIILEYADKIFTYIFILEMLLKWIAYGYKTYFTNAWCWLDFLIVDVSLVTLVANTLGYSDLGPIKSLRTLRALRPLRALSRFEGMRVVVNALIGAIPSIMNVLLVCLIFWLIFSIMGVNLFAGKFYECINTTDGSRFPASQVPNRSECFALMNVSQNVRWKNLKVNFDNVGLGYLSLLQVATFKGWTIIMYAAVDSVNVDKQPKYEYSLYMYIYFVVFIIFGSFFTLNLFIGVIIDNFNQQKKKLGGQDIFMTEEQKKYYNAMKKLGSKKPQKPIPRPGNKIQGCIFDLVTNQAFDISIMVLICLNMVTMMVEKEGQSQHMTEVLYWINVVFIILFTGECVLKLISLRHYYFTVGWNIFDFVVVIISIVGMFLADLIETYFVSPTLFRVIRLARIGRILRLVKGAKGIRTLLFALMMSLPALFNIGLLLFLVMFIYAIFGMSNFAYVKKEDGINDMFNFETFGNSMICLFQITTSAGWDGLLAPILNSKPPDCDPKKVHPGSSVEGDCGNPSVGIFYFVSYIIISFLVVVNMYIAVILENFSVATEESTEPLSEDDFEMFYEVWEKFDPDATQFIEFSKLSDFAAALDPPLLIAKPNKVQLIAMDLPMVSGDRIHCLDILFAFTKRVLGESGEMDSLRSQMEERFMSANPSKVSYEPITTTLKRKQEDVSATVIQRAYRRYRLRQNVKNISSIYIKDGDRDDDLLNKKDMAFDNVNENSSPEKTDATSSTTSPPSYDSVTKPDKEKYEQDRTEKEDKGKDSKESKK
Chain of Sodium channel protein type 9 subunit alpha/beta-1/beta-2 (Homo sapiens, UniProt Q15858) (O60939 whole entry, further chain): as the sequence (O60939 whole entry, further chain) above
Chain of Sodium channel protein type 9 subunit alpha/beta-1/beta-2 (Homo sapiens, UniProt Q15858) (Q07699 whole entry, further chain): as the sequence (Q07699 whole entry, further chain) above
Chain of Cytochrome P450 3A4 (P08684 whole entry): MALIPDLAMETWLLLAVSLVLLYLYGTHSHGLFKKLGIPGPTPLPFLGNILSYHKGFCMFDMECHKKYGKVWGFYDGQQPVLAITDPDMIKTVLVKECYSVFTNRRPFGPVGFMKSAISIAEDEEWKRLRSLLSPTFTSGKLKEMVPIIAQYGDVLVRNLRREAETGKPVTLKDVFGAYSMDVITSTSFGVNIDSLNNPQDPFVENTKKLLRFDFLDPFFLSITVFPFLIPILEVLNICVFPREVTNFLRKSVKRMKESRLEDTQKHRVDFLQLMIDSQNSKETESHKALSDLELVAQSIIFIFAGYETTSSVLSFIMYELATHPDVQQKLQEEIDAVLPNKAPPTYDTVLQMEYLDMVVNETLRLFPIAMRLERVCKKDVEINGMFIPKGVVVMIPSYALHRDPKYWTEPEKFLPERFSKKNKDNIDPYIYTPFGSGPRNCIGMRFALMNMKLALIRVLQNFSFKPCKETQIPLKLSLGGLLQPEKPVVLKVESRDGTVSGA

`Cc1cn(-c2cccc(C(F)(F)F)c2)c2cc(F)c(C(=O)NS(C)(=O)=O)cc12`: the “Ratio IC50” value worked out at 5000 in series [1] and 740 in series [6]. For the same compound, the outcome with Mus musculus [2] was Active. In series [3], the fraction unbound – broadly, free concentration divided by total concentration – worked out at 0.004. Further, the solubility thermodynamic at 4 h in series [4] was 230 µM (≈ 95.3 µg/mL). Also, the IC50 (in general, the point on the concentration scale where inhibition reaches its midpoint) in [5] was 16 nM; in series [7] it was 14000 nM; in [8] it was 19 nM; in series [10] it was above 100000 nM. For the same compound, the inhibition (in general, how much of the control response was suppressed) at 100 µM on hERG (KCNH2) was determined as 54.8%. Besides, in series [9], the logD (commonly lipophilicity at a set pH, counting ionised and neutral species) stood at 1.5.

Regarding `O=C(NS(=O)(=O)N1CCC1)c1cc(C2CC2)c(OCC23CC4CC(CC(C4)C2)C3)cc1F`, the IC50 at 5.5 min in [11] was determined as 51 nM.

With `Cc1cn(-c2cncc(C(F)(F)F)c2)c2ccc(C(=O)NS(=O)(=O)C3CC3)cc12`, the Ratio in series [12] worked out at 0.2. The outcome with Mus musculus [13] and with Mus musculus [19] was inactive. Further, the clearance (as a rule, a measure of how efficiently the substance is removed, as volume per time) in series [14] came out at 1.01 mL/min/kg. In addition, the “inhibition (INH)” value at Cytochrome P450 3A4, on Cytochrome P450 1A2, at Cytochrome P450 2D6 and against Cytochrome P450 2C9 was “Not Active” each time. The “Ratio IC50” value is 440 in series [1] and 930 in [6]. For the same compound, the half-life (as a rule, the time in which the quantity being followed falls by half) in series [15] was 17 h. For the same compound, the fraction unbound in series [3] was determined as 0.005. In addition, the solubility thermodynamic at 4 h in series [4] came out at 130 µM (≈ 55 µg/mL). The IC50 in series [5] was 61 nM; in series [7] it was 14000 nM; in series [8], 15 nM; in series [10], 6600 nM. For the same compound, the result in the series on Mus musculus [16] and with Mus musculus [23] was Active. The bioavailability in series [17] came out at 117%. The same compound had an inhibition at 100 µM at hERG (KCNH2) of 6.9%. In addition, the time of peak concentration (Tmax) (commonly the time at which the peak concentration occurs) in [18] is 3.3 h. Further, the concentration in [20] peaked (Cmax) at 2300 nM. Further, the Activity entry in series [21] is “Not Active”. The compound further gave a logD in [9] of 1. Moreover, in series [22], the Vd was found to be 0.81 L/kg. In addition, the AUC(0-t) (in general, the area under the concentration-time curve up to a stated or last time point) in series [24] worked out at 41.5 µM·h.

Regarding `C[C@@H](c1cc(Cl)cc(Cl)c1)N1CCC(COc2cc(F)c(C(=O)NS(C)(=O)=O)cc2C2CC2)CC1`, the half-inhibitory concentration (IC50) in series [7] came out at 551 nM; in series [8], 0.6 nM. For the same compound, in series [25], the IC50 at 5.5 min is 202 nM.

Values taken from ChEMBL document CHEMBL5247677, “N-Aryl Indoles as a Novel Class of Potent NaV1.7 Inhibitors” (ACS Med Chem Lett, 2023).
